Experiment: xn = mol fraction of the nth substance listed
Conditions: 100 kPa, Liquid; for viscosity: Capillary tube (Ostwald / Ubbelohde) method; for speed of sound: Frequency=2 MHz, Single path-length method; for mass density: Vibrating tube method

C=COC(C)=O [vinyl acetate] + COc1ccccc1
Conditions | mass density, 303.15 K [kg/m3] | mass density, 308.15 K [kg/m3] | mass density, 313.15 K [kg/m3] | speed of sound, 303.15 K [m/s] | speed of sound, 308.15 K [m/s] | speed of sound, 313.15 K [m/s] | viscosity, 303.15 K [mPa·s] | viscosity, 308.15 K [mPa·s] | viscosity, 313.15 K [mPa·s]
x1 = 0.0981 | 979.4 | 974.6 | 969.5 | 1350 | 1329 | 1310 | 0.843 | 0.775 | 0.724
x1 = 0.199 | 974 | 969 | 963.8 | 1316 | 1294 | 1274 | 0.766 | 0.708 | 0.664
x1 = 0.3015 | 968.3 | 963.1 | 957.8 | 1283 | 1260 | 1239 | 0.696 | 0.647 | 0.609
x1 = 0.3972 | 962.6 | 957.4 | 951.9 | 1253 | 1230 | 1208 | 0.638 | 0.595 | 0.562
x1 = 0.5005 | 956.2 | 950.8 | 945.2 | 1223 | 1199 | 1177 | 0.583 | 0.546 | 0.515
x1 = 0.5979 | 949.8 | 944.2 | 938.5 | 1194 | 1171 | 1150 | 0.535 | 0.503 | 0.476
x1 = 0.6988 | 942.8 | 937 | 931.1 | 1167 | 1144 | 1122 | 0.492 | 0.464 | 0.439
x1 = 0.8029 | 935.1 | 929.2 | 923.1 | 1139 | 1118 | 1096 | 0.451 | 0.427 | 0.406
x1 = 0.9005 | 927.5 | 921.5 | 915.3 | 1115 | 1095 | 1074 | 0.418 | 0.397 | 0.377
x1 = 1 | 919.4 | 913.5 | 907.3 | 1092 | 1074 | 1054 | 0.388 | 0.37 | 0.352
